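A five-concentration, 48-hour dose response in 96-well plates underlies each endpoint, interpolated linearly between surrounding concentrations. GI50: concentration for 50% inhibition of growth. TGI denotes the concentration required for complete inhibition of growth.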
Key:
Assay in all cases: NCI anticancer screen, dose series, 48 h
[1] = tested on: BT-549 breast
[2] = tested on: HCT-116 colon
[3] = tested on: LOX IMVI melanoma
[4] = tested on: OVCAR-5 ovarian
[5] = tested on: EKVX NSCLC
[6] = tested on: SN12C renal
[7] = tested on: HOP-92 NSCLC
[8] = tested on: NCI/ADR-RES ovarian
[9] = tested on: HS 578T breast
[10] = tested on: SW-620 colon
[11] = tested on: SF-268 CNS
[12] = tested on: COLO 205 colon
[13] = tested on: HCC-2998 colon
[14] = tested on: RXF 393 renal
[15] = tested on: OVCAR-4 ovarian
[16] = tested on: CAKI-1 renal
[17] = tested on: NCI-H460 lung
[18] = tested on: MDA-MB-435
[19] = tested on: M14 melanoma
[20] = tested on: SF-539 CNS
[21] = tested on: ACHN renal
[22] = tested on: PC-3 prostate
[23] = tested on: SK-MEL-28 melanoma
[24] = tested on: A498 renal
[25] = tested on: HL-60(TB) leukemia
[26] = tested on: OVCAR-8 ovarian
[27] = tested on: SNB-75 CNS
[28] = tested on: MDA-MB-231 breast
[29] = tested on: SK-OV-3 ovarian
[30] = tested on: TK-10 renal
[31] = tested on: UACC-62 melanoma
[32] = tested on: UACC-257 melanoma
[33] = tested on: HOP-62 NSCLC
[34] = tested on: A549 NSCLC
[35] = tested on: MCF7 breast
[36] = tested on: DU-145 prostate
[37] = tested on: HCT-15 colon
[38] = tested on: KM12 colon
[39] = tested on: NCI-H23 lung
[40] = tested on: T-47D breast
[41] = tested on: 786-0 renal
[42] = tested on: RPMI-8226 leukemia
[43] = tested on: SNB-19 CNS
[44] = tested on: MALME-3M melanoma
[45] = tested on: SF-295 CNS
[46] = tested on: U251 CNS
[47] = tested on: HT29 colon
[48] = tested on: SK-MEL-5 melanoma
[49] = tested on: OVCAR-3 ovarian
[50] = tested on: K-562 leukemia

Q: What does the source list for `COc1ccc(-c2nc3c(-c4ccccc4)nc(-c4ccccc4)cn3c2-c2ccc(OC)cc2)cc1`?
A: GI50 [1]: > 100 µM; TGI [1]: > 100 µM; GI50 [2]: > 100 µM; TGI [2]: > 100 µM; GI50 [3]: > 100 µM; TGI [3]: > 100 µM; GI50 [4]: > 100 µM; TGI [4]: > 100 µM; GI50 [5]: > 100 µM; TGI [5]: > 100 µM; GI50 [6]: > 100 µM; TGI [6]: > 100 µM; GI50 [7]: 54.6 µM; TGI [7]: > 100 µM; GI50 [8]: > 100 µM; TGI [8]: > 100 µM; GI50 [9]: 30.6 µM; TGI [9]: > 100 µM; GI50 [10]: > 100 µM; TGI [10]: > 100 µM; GI50 [11]: > 100 µM; TGI [11]: > 100 µM; GI50 [12]: > 100 µM; TGI [12]: > 100 µM; GI50 [13]: > 100 µM; TGI [13]: > 100 µM; GI50 [14]: 62.7 µM; TGI [14]: > 100 µM; GI50 [15]: > 100 µM; TGI [15]: > 100 µM; GI50 [16]: > 100 µM; TGI [16]: > 100 µM; GI50 [17]: > 100 µM; TGI [17]: > 100 µM; GI50 [18]: > 100 µM; TGI [18]: > 100 µM; GI50 [19]: > 100 µM; TGI [19]: > 100 µM; GI50 [20]: 88.2 µM; TGI [20]: > 100 µM; GI50 [21]: > 100 µM; TGI [21]: > 100 µM; GI50 [22]: > 100 µM; TGI [22]: > 100 µM; GI50 [23]: > 100 µM; TGI [23]: > 100 µM; GI50 [24]: > 100 µM; TGI [24]: > 100 µM; GI50 [25]: 3.28 µM; TGI [25]: 52.6 µM; GI50 [26]: > 100 µM; TGI [26]: > 100 µM; GI50 [27]: 26.8 µM; TGI [27]: > 100 µM; GI50 [28]: 68.5 µM; TGI [28]: > 100 µM; GI50 [29]: 82.5 µM; TGI [29]: > 100 µM; GI50 [30]: > 100 µM; TGI [30]: > 100 µM; GI50 [31]: 88.6 µM; TGI [31]: > 100 µM; GI50 [32]: > 100 µM; TGI [32]: > 100 µM; GI50 [33]: 40.6 µM; TGI [33]: > 100 µM; GI50 [34]: > 100 µM; TGI [34]: > 100 µM; GI50 [35]: > 100 µM; TGI [35]: > 100 µM; GI50 [36]: > 100 µM; TGI [36]: > 100 µM; GI50 [37]: > 100 µM; TGI [37]: > 100 µM; GI50 [38]: > 100 µM; TGI [38]: > 100 µM; GI50 [39]: > 100 µM; TGI [39]: > 100 µM; GI50 [40]: > 100 µM; TGI [40]: > 100 µM; GI50 [41]: 49.5 µM; TGI [41]: > 100 µM; GI50 [42]: > 100 µM; TGI [42]: > 100 µM; GI50 [43]: > 100 µM; TGI [43]: > 100 µM; GI50 [44]: > 100 µM; TGI [44]: > 100 µM; GI50 [45]: > 100 µM; TGI [45]: > 100 µM; GI50 [46]: > 100 µM; TGI [46]: > 100 µM; GI50 [47]: > 100 µM; TGI [47]: > 100 µM; GI50 [48]: > 100 µM; TGI [48]: > 100 µM; GI50 [49]: > 100 µM; TGI [49]: > 100 µM; GI50 [50]: > 100 µM; TGI [50]: > 100 µM
